Laboratory results taken from patent publication US20250177285A1, “BANANA STEM SAP COMPOSITIONS AND METHODS OF USE THEREOF” (Tano Pharmaceuticals Inc., priority 2023, published 2025).
Marks after values point to notes of the source that are not given here. Residues, ends and D or L forms follow the SMILES beside them.

How the values were obtained:
[1] = tested on: type I collagen output by normal human neonatal dermal fibroblasts; test: Type I collagen output, sandwich ELISA of conditioned medium; type: cell-based; conditions: for effect on type I collagen (in words): tested range
Experimental: (§1) Test materials. Test materials (Table 2) were stored at +4° C. and were diluted in distilled sterile water immediately before testing. Cells & experimental procedures. Normal dermal human neonatal dermal fibroblasts (ScienCell; […] The next day (Day 1), test materials, reference substances [MAP (100 μg/ml), MAP (50 μg/ml) and niacinamide (400 μg/ml, 250 μg/ml and 80 μg/ml, based on PMC7950568 and PMC8622652)] and negative control (H2O) were added, and cell culture was pursued for three additional days, afterward the cell culture conditioned medium was used for type I & IV collagen quantification, while cells were formalin-fixed and type III collagen was measured by direct ELISA. The effect of the test articles on cell numbers was determined using the sulforhodamine B method (Table 3). MAP: magnesium ascorbyl phosphate. All colorimetric measurements were acquired using multi-mode SpectraMax i3x platform (Molecular Devices, San Jose CA) assisted with SoftMax 7.0.3. PRO. 21 software. […] [table]

[2] = tested on: type III collagen output by normal human neonatal dermal fibroblasts; test: Type III collagen, direct ELISA on formalin-fixed cells; type: cell-based; conditions: for effect on type III collagen (in words): tested range
Experimental: as §1

[3] = tested on: type IV collagen output by normal human neonatal dermal fibroblasts; test: Type IV collagen output, ELISA of conditioned medium; type: cell-based; conditions: for effect on type IV collagen (in words): tested range
Experimental: as §1

[4] = tested on: normal human neonatal dermal fibroblasts; test: Cell numbers, sulforhodamine B method; type: cell-based
Experimental: as §1

[5] = tested on: Clostridium collagenase IV (a generic metalloproteinase); test: Metalloproteinase (collagenase) activity assay, Enzchek kit, quenched fluorescent gelatin; type: biochemical
Experimental: (§2) Test Materials. Test materials (Table 8) were stored at +4° C. and were diluted in distilled sterile water immediately before testing. All experimental conditions were tested in biological triplicates.
Metalloproteinase activity assay. The activity of the test materials towards collagenase proteolytic activity was examined by adding dilutions of test articles to the Enzchek kit reaction mixture (Molecular Probes/Invitrogen/ThermoFisher). Clostridium collagenase IV (a generic metalloproteinase) was used as the protease and quenched fluorescent gelatin was the substrate. Phenanthroline, a potent collagenase inhibitor was used as positive control at 1000 μM. The kinetics of the release of the digested, fluorescent gelatin were measured at excitation/emission wavelengths of 485/530 nm with the SpectraMax i3x microplate reader. Fluorescence readings were adjusted by subtracting the values in wells containing no collagenase and were expressed in arbitrary fluorescence units and as % of water-treated controls.
(§3) Statistical analysis. Statistical significance threshold was established as minimum 20% modulation and p value <0.05 as determined by two-tailed Student test.

[6] = molecular target: T1, elastase (Sus scrofa, UniProt P00772); test: Elastase activity assay; type: biochemical, human
T1 construct: purchased Promega V1891
T1 sequence (P00772 27-266): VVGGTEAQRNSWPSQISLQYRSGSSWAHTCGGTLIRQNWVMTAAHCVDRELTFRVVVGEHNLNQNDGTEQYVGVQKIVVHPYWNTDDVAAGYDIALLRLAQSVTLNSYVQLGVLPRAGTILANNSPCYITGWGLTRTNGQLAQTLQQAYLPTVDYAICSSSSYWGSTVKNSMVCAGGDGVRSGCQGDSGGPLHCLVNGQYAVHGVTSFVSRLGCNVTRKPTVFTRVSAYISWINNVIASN
Experimental: as §2
Elastase activity assay. The reaction was initiated by adding 10 μl of 20 μg/ml elastase enzyme (Promega, cat. #V1891, lot #409147) to the assay mixture [10 mM Tris-HCl pH 7.5+/−0.5, 1 mg/ml elastase substrate VIII (Suc-Ala-Ala-Ala-pNA)] containing different experimental conditions, and the reaction kinetics were monitored at room temperature by measuring absorbance at 405 nm in the SpectraMax i3x microplate reader. Sterile distilled water was the negative, and EI III (Calbiochem cat. #324745) was the positive control. […]. Colorimetric readings were adjusted by subtracting the absorbance in wells containing the same experimental conditions but without elastase and were expressed as % of water control.
as §3

O=C1O[C@H]([C@@H](O)CO)C([O-])=C1OP(=O)([O-])[O-].O=C1O[C@H]([C@@H](O)CO)C([O-])=C1OP(=O)([O-])[O-].[Mg+2].[Mg+2].[Mg+2] [MAP, magnesium ascorbyl phosphate]
Type I collagen (% Control) ([1]; 50 ug/mL): 148 % Control
Type I collagen (% Control) ([1]; 100 ug/mL): 166 % Control
effect on type I collagen (in words) [1]: strong stimulatory response
Type III collagen (% Control) ([2]; 50 ug/mL): 1977 % Control
Type III collagen (% Control) ([2]; 100 ug/mL): 1874 % Control
effect on type III collagen (in words) [2]: strong stimulatory response
Type IV collagen (% Control) ([3]; 50 ug/mL): 694 % Control
Type IV collagen (% Control) ([3]; 100 ug/mL): 703 % Control
effect on type IV collagen (in words) [3]: strong stimulatory response
Cell Numbers (% Control) ([4]; 50 ug/mL): 130 % Control
Cell Numbers (% Control) ([4]; 100 ug/mL): 139 % Control

c1cnc2c(c1)ccc1cccnc12 [Phenanthroline]
MP activity (% CTR) ([5]; positive control at 1000 μM, t = 20 min): 0* % CTR
inhibitory effect on collagenase (MP) / generic metalloproteinase activity (in words) ([5]; tested range): total inhibitory activity

COC(=O)CCC(=O)N[C@@H](C)C(=O)N[C@@H](C)C(=O)N1CCC[C@H]1C(=O)N[C@H](C(=O)CCl)C(C)C [El III] (HELM PEPTIDE1{[COC(=O)CCC(=O)[*:2]].A.A.P.V.[ClC[*:1]]}$$$$V2.0)
Elastase activity (% Control) ([6]; 1 ug/mL, t = 20 min): 9*** % Control
suppressive effect on elastase activity (in words) ([6]; tested range): nearly complete inhibitory activity

NC(=O)c1cccnc1 [niacinamide]
Type I collagen (% Control) ([1]; 80 ug/mL): 94 % Control
Type I collagen (% Control) ([1]; 250 ug/mL): 130 % Control
Type I collagen (% Control) ([1]; 400 ug/mL): 130 % Control
type I collagen increase / upregulation (description summary) ([1]; concentration not given): up to 130%
effect on type I collagen (in words) [1]: upregulated type I collagen at the two highest tested concentrations
Type III collagen (% Control) ([2]; 80 ug/mL): 106 % Control
Type III collagen (% Control) ([2]; 250 ug/mL): 106 % Control
Type III collagen (% Control) ([2]; 400 ug/mL): 111 % Control
effect on type III collagen (in words) [2]: no effect
Type IV collagen (% Control) ([3]; 80 ug/mL): 88 % Control
Type IV collagen (% Control) ([3]; 250 ug/mL): 86 % Control
Type IV collagen (% Control) ([3]; 400 ug/mL): 104 % Control
effect on type IV collagen (in words) [3]: no effect
Cell Numbers (% Control) ([4]; 80 ug/mL): 99 % Control
Cell Numbers (% Control) ([4]; 250 ug/mL): 99 % Control
Cell Numbers (% Control) ([4]; 400 ug/mL): 96 % Control
